Measurements as given in patent US11510952B2, “Ethanol extraction of psychoactive compounds from psilocybin fungus” (PSILO SCIENTIFIC LTD, priority 2020, dated 2022).

Tests used:
[1] = pH stability of purified psilocybin / psilocin over time under aqueous conditions; assay type: physicochemical; details: aqueous solutions across the pH spectrum
Excerpt: The dephosphorylated indole alkaloids are well known to be unstable. Internal experiments have also quantified and substantiated these findings under aqueous conditions across the pH spectrum (Tables 5 and 6).

[2] = Solubility of psilocybin and psilocin in solvents; assay type: physicochemical
Description: Psilocybin and psilocin are soluble in methanol and water and are not soluble in isopropanol, ethanol and acetone. Experiments were performed to determine the best solvent compositions for extraction (FIGS. 32B and 32C; Table 7)

| SMILES | maximum stability pH [1] | solubility in acetone [2] | solubility in ethanol [2] | solubility in isopropanol [2] | solubility in methanol [2] | solubility in water [2] |
| --- | --- | --- | --- | --- | --- | --- |
| CN(C)CCc1c[nH]c2cccc(O)c12 [Psilocin] | 4 pH | not soluble | not soluble | not soluble | soluble | soluble |
| CN(C)CCc1c[nH]c2cccc(OP(=O)(O)O)c12 [Psilocybin] | – | not soluble | not soluble | not soluble | soluble | soluble |
